Values joined by “and” are separate entries in the source; they are usually repeats but may differ in a detail not shown here. Equal values may be shown once.
Tested on: 743489-274-T-PDC complex spheroid growth
Assay: Anticancer human tumor 743489-274-T-PDC patient-derived renal cell carcinoma cell line growth inhibition [AhR]
Conditions: for viability, T/C: stronger effect = lower value; active = viability on the fitted dose curve at most 10% of control; inactive = the rest
In short: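 Spheroids combined tumor cells with HUVEC endothelial cells and human MSCs as stroma. AhR antagonists were paired with standard or investigational drugs, each dosed in half-log steps down from near clinical Cmax, or from 10 microM where Cmax was unknown.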

[1] = curve of first compound, second compound 0.1 µM
[2] = curve of first compound, second compound 0.316 µM
[3] = curve of first compound, second compound 1 µM
[4] = curve of first compound, second compound 3.16 µM
[5] = curve of first compound, second compound 10 µM
[6] = second compound 0.1 µM, first compound 0.0316 µM
[7] = second compound 0.1 µM, first compound 0.1 µM
[8] = second compound 0.1 µM, first compound 0.316 µM
[9] = second compound 0.1 µM, first compound 1 µM
[10] = second compound 0.1 µM, first compound 3.16 µM
[11] = second compound 0.1 µM, first compound 10 µM
[12] = second compound 0.316 µM, first compound 0.0316 µM
[13] = second compound 0.316 µM, first compound 0.1 µM
[14] = second compound 0.316 µM, first compound 0.316 µM
[15] = second compound 0.316 µM, first compound 1 µM
[16] = second compound 0.316 µM, first compound 3.16 µM
[17] = second compound 0.316 µM, first compound 10 µM
[18] = second compound 1 µM, first compound 0.0316 µM
[19] = second compound 1 µM, first compound 0.1 µM
[20] = second compound 1 µM, first compound 0.316 µM
[21] = second compound 1 µM, first compound 1 µM
[22] = second compound 1 µM, first compound 3.16 µM
[23] = second compound 1 µM, first compound 10 µM
[24] = second compound 3.16 µM, first compound 0.0316 µM
[25] = second compound 3.16 µM, first compound 0.1 µM
[26] = second compound 3.16 µM, first compound 0.316 µM
[27] = second compound 3.16 µM, first compound 1 µM
[28] = second compound 3.16 µM, first compound 3.16 µM
[29] = second compound 3.16 µM, first compound 10 µM
[30] = second compound 10 µM, first compound 0.0316 µM
[31] = second compound 10 µM, first compound 0.1 µM
[32] = second compound 10 µM, first compound 0.316 µM
[33] = second compound 10 µM, first compound 1 µM
[34] = second compound 10 µM, first compound 3.16 µM
[35] = second compound 10 µM, first compound 10 µM
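Note: spheroids exposed to agents for 7 days before readout.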
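Throughout, for viability, T/C: 100% = DMSO vehicle control wells.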

CC(C)c1c(-c2ccccc2)nc2c(C#N)c[nH]n2c1=O + Cc1ccccc1N=Nc1ccc(NC(=O)c2ccnn2C)c(C)c1
inactive: viability, T/C [6] 102% | viability, T/C [7] 103% | viability, T/C [8] 93.3% | viability, T/C [9] 96% | viability, T/C [10] 109% | viability, T/C [11] 99.4% | viability, T/C [12] 102% | viability, T/C [13] 102% | viability, T/C [14] 101% | viability, T/C [15] 94.1% | viability, T/C [16] 100% | viability, T/C [17] 91.3% | viability, T/C [18] 111% | viability, T/C [19] 93.8% | viability, T/C [20] 108% | viability, T/C [21] 109% | viability, T/C [22] 95.7% | viability, T/C [23] 96.2% | viability, T/C [24] 94.3% | viability, T/C [25] 98.1% | viability, T/C [26] 94.5% | viability, T/C [27] 103% | viability, T/C [28] 104% | viability, T/C [29] 90.4% | viability, T/C [30] 92.2% | viability, T/C [31] 99.2% | viability, T/C [32] 104% | viability, T/C [33] 93.2% | viability, T/C [34] 85.8% | viability, T/C [35] 86.9%
> 10 µM: IC50 [1] | IC50 [2] | IC50 [3] | IC50 [4] | IC50 [5]

CCN(c1cc(-c2ccc(CN3CCOCC3)cc2)cc(C(=O)NCc2c(C)cc(C)[nH]c2=O)c1C)C1CCOCC1
inactive: viability, T/C (compound 0.00949 µM) 107% and 101% and 108% | viability, T/C (compound 0.03 µM) 102% and 103% and 122% | viability, T/C (compound 0.0949 µM) 102% and 86.6% and 107% | viability, T/C (compound 0.3 µM) 102% and 99.9% and 101% | viability, T/C (compound 0.949 µM) 94.9% and 104% and 108% | viability, T/C (compound 3 µM) 102% and 91% and 101%
> 3 µM: IC50 (curve of compound)

CC[C@@]1(O)C(=O)OCc2c1cc1n(c2=O)Cc2cc3c(CN(C)C)c(O)ccc3nc2-1 + CC(CO)NC(=O)c1cc(-c2ccc(Cl)cc2)nn(-c2cnn(C)c2)c1=O
> 0.1 µM: IC50 [1] | IC50 [2] | IC50 [3] | IC50 [4] | IC50 [5]
inactive: viability, T/C (second compound 0.1 µM, first compound 0.000316 µM) 99.8% | viability, T/C (second compound 0.1 µM, first compound 0.001 µM) 97.9% | viability, T/C (second compound 0.1 µM, first compound 0.00316 µM) 91.4% | viability, T/C (second compound 0.1 µM, first compound 0.01 µM) 94.4% | viability, T/C [6] 86.6% | viability, T/C [7] 86.4% | viability, T/C (second compound 0.316 µM, first compound 0.000316 µM) 90.7% | viability, T/C (second compound 0.316 µM, first compound 0.001 µM) 96.5% | viability, T/C (second compound 0.316 µM, first compound 0.00316 µM) 102% | viability, T/C (second compound 0.316 µM, first compound 0.01 µM) 84.7% | viability, T/C [12] 83.3% | viability, T/C [13] 82.3% | viability, T/C (second compound 1 µM, first compound 0.000316 µM) 96.2% | viability, T/C (second compound 1 µM, first compound 0.001 µM) 98.9% | viability, T/C (second compound 1 µM, first compound 0.00316 µM) 95.4% | viability, T/C (second compound 1 µM, first compound 0.01 µM) 87% | viability, T/C [18] 86.2% | viability, T/C [19] 79% | viability, T/C (second compound 3.16 µM, first compound 0.000316 µM) 91.2% | viability, T/C (second compound 3.16 µM, first compound 0.001 µM) 89.9% | viability, T/C (second compound 3.16 µM, first compound 0.00316 µM) 92.4% | viability, T/C (second compound 3.16 µM, first compound 0.01 µM) 84% | viability, T/C [24] 92.5% | viability, T/C [25] 88.3% | viability, T/C (second compound 10 µM, first compound 0.000316 µM) 92.4% | viability, T/C (second compound 10 µM, first compound 0.001 µM) 92.7% | viability, T/C (second compound 10 µM, first compound 0.00316 µM) 109% | viability, T/C (second compound 10 µM, first compound 0.01 µM) 92.4% | viability, T/C [30] 85.9% | viability, T/C [31] 81.4%

CC(C)c1c(-c2ccccc2)nc2c(C#N)c[nH]n2c1=O + CC(CO)NC(=O)c1cc(-c2ccc(Cl)cc2)nn(-c2cnn(C)c2)c1=O
inactive: viability, T/C [6] 101% | viability, T/C [7] 96.5% | viability, T/C [8] 101% | viability, T/C [9] 111% | viability, T/C [10] 93.9% | viability, T/C [11] 102% | viability, T/C [12] 93% | viability, T/C [13] 97.9% | viability, T/C [14] 99.2% | viability, T/C [15] 93.2% | viability, T/C [16] 90.4% | viability, T/C [17] 102% | viability, T/C [18] 94.7% | viability, T/C [19] 90.3% | viability, T/C [20] 97.5% | viability, T/C [21] 90.2% | viability, T/C [22] 102% | viability, T/C [23] 101% | viability, T/C [24] 90% | viability, T/C [25] 99.5% | viability, T/C [26] 99.9% | viability, T/C [27] 96.6% | viability, T/C [28] 98.3% | viability, T/C [29] 95% | viability, T/C [30] 98.9% | viability, T/C [31] 101% | viability, T/C [32] 99.7% | viability, T/C [33] 95.7% | viability, T/C [34] 95.1% | viability, T/C [35] 93.8%
> 10 µM: IC50 [1] | IC50 [2] | IC50 [3] | IC50 [4] | IC50 [5]

Reference: PubChem BioAssay AID1919002 (Molecular Pharmacology Branch, DTP, NCI, 2023)
